Assay results: patent publication US12459898B2, “Polycationic amphiphiles as antimicrobial agents and methods using same” (Temple University-Of The Commonwealth System of Higher …, priority 2016, dated 2025)

Legend:
[1] = system: red blood cells (mechanically defibrinated sheep blood); assay: Red blood cell (RBC) lysis assay (Lysis20); format: cell-based; details: sheep RBCs in PBS, 37° C., 1 hour, absorbance 540 nm; Table 1
Excerpt: These assessments followed standard protocols (Minbiole et al., 2016, Tetrahedron, 72: 3559-3566, Forman et al., 2016, ChemMedChem, 11: 1401-1405, Forman et al., 2016, ChemMedChem, 11: 958-962, Mitchell et al., 2015, ChemBioChem, 16: 2299-2303, Jennings et al., 2015, ACS Inf. Dis, 1: 304-308, Paniak et al., 2014, Bioorg. Med. Chem. Lett, 24: 5824-5828, Ator et al., 2014, Bioorg. Med. Chem. Lett, 24: 3706-3709, Jennings et al., 2014, ChemBioChem, 15: 2211-2215, Black et al., 2014, Bioorg. Med. Chem. Lett, 24, 99-102, Grenier et al., 2012, Bioorg. Med. Chem. Lett, 22: 4055-4058).
RBC lysis assays were performed on mechanically defibrinated sheep blood (Hemostat Labs: DSB030). 1.5 mL of blood was placed into a microcentrifuge tube and centrifuged at 10,000 rpm for ten minutes. The supernatant was removed and the cells were resuspended with 1 mL of phosphate-buffered saline (PBS). The suspension was centrifuged as previously, the supernatant was removed, and cells were resuspended two more times. The final cell suspension was diluted twentyfold with PBS. The twentyfold suspension dilution was then aliquoted into microcentrifuge tubes containing compound serially diluted in PBS. TritonX (1% by volume) served as a positive control (100% lysis marker) and sterile PBS served as a negative control (0% lysis marker). Samples were then placed in an incubator at 37° C. and shaken at 200 rpm. After 1 hour, the samples were centrifuged at 10,000 rpm for ten minutes. The absorbance of the supernatant was measured with a UV spectrometer at a 540 nm wavelength.

[2] = system: methicillin-susceptible Staphylococcus aureus MSSA (SH1000); assay: Minimum inhibitory concentration (MIC), S. aureus; format: cell-based; details: MH media, 37° C., 72 hours, visual growth
Protocol: (§1) As used herein, the term “minimum inhibitory concentration (MIC)” refers to the lowest concentration of an antimicrobial agent that will inhibit the visible growth of a microorganism after overnight incubation. MIC values against bacteria, for example, the Gram-positive Staphylococcus aureus and Enterococcus faecalis and the Gram-negative Escherichia coli and Pseudomonas aeruginosa were determined by standard methods. See also P. A. Wayne, Methods for Dilution Antimicrobial Tests for Bacteria that Grow Aerobically; Approved Standard, Ninth Edition, 2012, CLSI Document M07-A9, Vol. 32 No. 2, which is incorporated by reference herein in its entirety.
(§2) For all biological assays, laboratory strains of methicillin-susceptible Staphylococcus aureus MSSA (SH1000), Enterococcus faecalis (OG1RF), Escherichia coli (MC4100), Pseudomonas aeruginosa (PAO1), community-acquired methicillin-resistant Staphylococcus aureus CA-MRSA (USA300-0114), and hospital-acquired methicillin-resistant Staphylococcus aureus HA-MRSA (ATCC 33591) were grown with shaking at 37° C. overnight from freezer stocks in 10 mL of the indicated media.
(§3) Compounds were serially diluted two-fold from stock solutions to yield twelve test concentrations. Overnight S. aureus, E. faecalis, E. coli, P. aeruginosa, USA300-0114 (CA-MRSA), and ATCC 33591 (HA-MRSA) cultures diluted to ca. 10^6 cfu/mL in MH media and 100 μL were inoculated into each well of a U-bottom 96-well plate (BD Biosciences, BD 351177) containing 100 μL of compound solution. Plates were incubated statically at 37° C. for 72 hours upon which time wells were evaluated visually for bacterial growth. The MIC was determined as the lowest concentration of compound resulting in no bacterial growth visible to the naked eye, based on the majority of three independent experiments. Aqueous DMSO controls were conducted as appropriate for each compound.

[3] = system: Escherichia coli (MC4100); assay: Minimum inhibitory concentration (MIC), E. coli; format: cell-based; details: MH media, 37° C., 72 hours, visual growth
Protocol: as §1, §2, §3

[4] = system: Enterococcus faecalis (OG1RF); assay: Minimum inhibitory concentration (MIC), E. faecalis; format: cell-based; details: MH media, 37° C., 72 hours, visual growth
Protocol: as §1, §2, §3

[5] = system: community-acquired methicillin-resistant Staphylococcus aureus CA-MRSA (USA300-0114); assay: Minimum inhibitory concentration (MIC), CA-MRSA; format: cell-based; details: MH media, 37° C., 72 hours, visual growth
Protocol: as §1, §2, §3

[6] = system: hospital-acquired methicillin-resistant Staphylococcus aureus HA-MRSA (ATCC 33591); assay: microbe, parasite or virus in culture; format: cell-based; details: Staphylococcus aureus, 72 h, read-out: MIC, HA-MRSA
Protocol: as §1, §2, §3

[7] = Stability of the prepared amphiphiles; format: physicochemical; details: observation after preparation
Protocol: (§4) For the tris-pyridine system, it was initially attempted to alkylate the commercially available O3Pyr, which led to no reaction under a number of SN2-type reaction conditions, presumably due to steric hindrance next to the nucleophilic pyridine nitrogen. The preparation of the “para” isomer via a precedented reductive amination shown in FIG. 4 (52%) was then carried out (Oh et al., 2007, Korean Chem. Soc, 28: 2193-2194, Abdel-Magid et al., 1996, J. Org. Chem, 61: 3849-3862). […] Attempts to prepare homologs led to variable yields and unacceptable purity. While not wishing to be bound by any particular theory it was hypothesized that this could have resulted from a fragmentation event driven by the central nitrogen, which might be circumvented by a change in the electronic distribution of the QAC. […] These amphiphiles were prepared in 71-97% yields, again after recrystallization or trituration. […]

[8] = system: Pseudomonas aeruginosa (PAO1); assay: Minimum inhibitory concentration (MIC), P. aeruginosa; format: cell-based; details: MH media, 37° C., 72 hours, visual growth
Protocol: as §1, §2, §3

[9] = system: six bacteria (SA, EF, EC, PA, CA-MRSA, HA-MRSA); assay: Antimicrobial activity (MIC) over the panel of six bacteria; format: cell-based
Protocol: as §4
Compounds were serially diluted two-fold from stock solutions to yield twelve test concentrations. […] Plates were incubated statically at 37° C. for 72 hours upon which time wells were evaluated visually for bacterial growth. The MIC was determined as the lowest concentration of compound resulting in no bacterial growth visible to the naked eye, based on the majority of three independent experiments. […]

Row | Structure (SMILES) | Lysis20 (highest concentration at which <20% of RBCs are lysed) [1] | MIC [2] | MIC [3] | MIC [4] | MIC [5] | MIC [6] | stability [7] | MIC [8] | antimicrobial activity / bioactivity in words [9]
1 | CCCCCCCCCC[n+]1ccc(CN(Cc2cc[n+](CCCCCCCCCC)cc2)Cc2cc[n+](CCCCCCCCCC)cc2)cc1 [P3Pyr-10,10,10] | 4 μm | 0.5 µM | 1 µM | 1 µM | 0.5 µM | 0.5 µM | poor stability | 2 µM | 
2 | CCCCCCCCCCCC[n+]1ccc(CN(Cc2cc[n+](CCCCCCCCCCCC)cc2)Cc2cc[n+](CCCCCCCCCCCC)cc2)cc1 [P3Pyr-12,12,12] | 8 μm | 2 µM | 2 µM | 2 µM | 1 µM | 2 µM | poor stability | 8 µM | 
3 | CCCCCCCCCCC[n+]1ccc(CCCc2cc[n+](CCCCCCCCCCC)cc2)cc1 [2Pyr-11,11] | 8 μm | 0.5 µM | 0.5 µM | 0.25 µM | 0.25 µM | 0.5 µM |  | 2 µM | nanomolar inhibition against 5 of 6 bacteria tested
